What was measured:
[1] = tested on: PC-3; assay: Cox/SDH ratio assay in PC-3 cells; format: cell-based; settings: Cellular assays (MP-Nuc); concentration giving Cox/SDH ratio <0.5, PC-3 cells
[2] = tested on: HepG2; assay: Cox/SDH ratio assay in HepG2 cells; format: cell-based; settings: Cellular assays (MP-Nuc); concentration giving Cox/SDH ratio <0.5, HepG2 cells
[3] = tested on: K562; assay: Cytotoxicity (CC50 assay) in K562; format: cell-based; settings: N = 3; CC50, 72 hours, Cell-Titer Glo
Protocol: (§1) Cytotoxicity (CC50 Assay) in HepG2 & K562 White TC grade Greiner 384-well assay plates were stamped with 0.5 ul of compound in 90% DMSO/10% water. HepG2 cells were trypsinized and collected into 50 ml falcon tube. K562 suspension cells were collected in 50 ml falcon tube. Both tubes containing cells were spun in benchtop centrifuge at 1200 rpm for 5 mins. The supernatant was discarded and the cell pellet was re-suspended in fresh culture media (HepG2: DMEM:F12 mix+10% FBS+1% Pen/Strep & K562: IMDM+10% FBS+1% Pen-Strep). Cells were counted using a hemocytometer and cells were diluted to a working suspension of 50,000 cells/ml for HepG2, and 20,000 cells/ml for K562. 50 ul of cells suspension was added to each well of 384-assay plate. Assay plates were incubated at 37° C., 5% CO2, 90% humidity incubator for 72 hours. Assay plates were then treated with 25 ul of Promega's Cell-Titer Glo® reagent, and incubated at room temperature for 10 mins. Plates were read on PolarStar-Omega using the Luminescence setting and a Gain of 3300.

[4] = tested on: HepG2; assay: Cytotoxicity (CC50 assay) in HepG2; format: cell-based; settings: N = 7+; CC50, 72 hours, Cell-Titer Glo
Protocol: as §1

[5] = tested on: PC3; assay: PC3 cytotoxicity assay; format: cell-based; settings: 3 or 5 days at 37° C., CellTiter-Glo
Protocol: (§2) MT4 and PC3 Cytotoxicity Assay. Compounds were serially diluted in DMSO in half-logarithmic steps starting from 10 mM. 0.5 μL of serially diluted compound was transferred to the assay plates (Greiner cat#781080). Cells were added to the assay-ready compound plates in 50 μL of RPMI 1640 medium supplemented with 10% FBS (NCS Lot OS-161071), 1× penicillin/streptomycin solution (CellGro/Mediatech, Manassas, Va.; 30-002-CI), and incubated at 37° C. for 3 or 5 days. Control wells included DMSO alone (100% inhibition). Cell viability was determined using the CellTiter-Glo® Luminescent Cell Viability Assay (Promega, G7573) according to the manufacturer's protocol and a POLARstar Omega Luminometer (BMG Labtech).

[6] = tested on: MT4; assay: MT4 cytotoxicity assay; format: cell-based; settings: N = 2; 3 or 5 days at 37° C., CellTiter-Glo
Protocol: as §2

[7] = tested on: HRV29; assay: HRV cytopathic effect (CPE) assay; format: cell-based; settings: Human rhinovirus sp., H1-HeLa cells, 72 h at 33° C., CellTiter-Glo, read-out: Activity on HRV strains and other viruses: HRV29
Protocol: (§3) HRV Cytopathic Effect (CPE) Assay.
(§4) Compounds were serially diluted in DMSO in half-logarithmic steps starting from 5 mM. Of each dilution, 0.5 μL were transferred to the assay plates. H1-HeLa cells were added to the assay-ready compound plates in 45 μL DMEM supplemented with 0.1% BSA (Gibco, 15260), 1× penicillin/streptomycin solution (CellGro/Mediatech, Manassas, Va.; 30-002-CI), and 1× non-essential amino acids (CellGro; 25-025-CI) at 5000 cells/well into triplicate 384-well plates and incubated at 33° C. for 6 hours. Control wells included DMSO alone (100% inhibition) and DMSO plus virus (0% inhibition). After 6 h incubation at 33° C., 5 μL of human rhinovirus stock was added at an MOI that effectively kills 99% of cells within 72 hours. Plates were then incubated for 72 h at 33° C. Cell viability was determined using the CellTiter-Glo® Luminescent Cell Viability Assay (Promega, G7573) according to the manufacturer's protocol and a POLARstar Omega Luminometer (BMG Labtech).

[8] = tested on: HRV14; assay: HRV cytopathic effect (CPE) assay; format: cell-based; settings: Human rhinovirus sp., H1-HeLa cells, 72 h at 33° C., CellTiter-Glo, read-out: Activity on HRV strains and other viruses: HRV14
Protocol: as §3, §4

[9] = tested on: HRV86; assay: HRV cytopathic effect (CPE) assay; format: cell-based; settings: Human rhinovirus sp., H1-HeLa cells, 72 h at 33° C., CellTiter-Glo, read-out: Activity on HRV strains and other viruses: HRV86
Protocol: as §3, §4

[10] = tested on: HRV10; assay: HRV cytopathic effect (CPE) assay; format: cell-based; settings: Human rhinovirus sp., H1-HeLa cells, 72 h at 33° C., CellTiter-Glo, read-out: Activity on HRV strains and other viruses: HRV10
Protocol: as §3, §4

[11] = tested on: HRV16; assay: HRV cytopathic effect (CPE) assay; format: cell-based; settings: Human rhinovirus sp., H1-HeLa cells, 72 h at 33° C., CellTiter-Glo, read-out: Activity on HRV strains and other viruses: HRV16
Protocol: as §3, §4

[12] = tested on: HRV39; assay: HRV cytopathic effect (CPE) assay; format: cell-based; settings: Human rhinovirus sp., H1-HeLa cells, 72 h at 33° C., CellTiter-Glo, read-out: Activity on HRV strains and other viruses: HRV39
Protocol: as §3, §4

[13] = tested on: Dengue virus (PBMCs); assay: Activity on Dengue virus in PBMCs; format: cell-based; settings: PBMC, read-out: Activity on HRV strains and other viruses: Dengue virus (PBMCs)
[14] = tested on: HRV15 (c-type); assay: HRV replicon assay (Group C replicon); format: cell-based; settings: Human rhinovirus sp., HRV15, H1-HeLa, read-out: Activity on HRV strains and other viruses: HRV15 (c-type)
Protocol: This assay was based on the Group C replicon previously described (Mello et al, Antimicrobial Agents and Chemotherapy, 2014) with the modification that the P1 region was replaced with the cDNA encoding Nanoluciferase (Promega Corporation, Madiso, Wis.) Compounds were serially diluted in DMSO in half-logarithmic steps starting from 5 mM. Of each dilution, 0.5 μL were transferred to the assay plates. H1-HeLa cells were trypsinized, washed twice with ice-cold OptiMem® Gibco, 31985), resuspended at 1.5×10^7 cells/ml in OptiMem®, and stored on ice. A total of 6×10^6 cells were electroporated (270 V, 950 μF, ∞ resistance) with 25 ng of in vitro-transcribed RNA and allowed to rest on ice for 10 min. Electroporated cells were then diluted DMEM supplemented with 0.1% BSA (Gibco, 15260), 1× penicillin/streptomycin solution (CellGro/Mediatech, Manassas, Va.; 30-002-CI) to a final concentration 4×10^5 cells/ml. 50 μl of cells were then added to the compounds then incubated for […] at 33° C. Luciferase signal was then measured after 48 h using the NanoGlo® Detection Kit Assay (Promega, N1150) according to the manufacturer's protocol and a POLARstar Omega Luminometer (BMG Labtech).

[15] = tested on: Chikungunya virus; assay: Activity on Chikungunya virus; format: cell-based; settings: read-out: Activity on HRV strains and other viruses: Chikungunya virus
[16] = target: T1, Human Mitochondrial RNA polymerase (POLRMT) (Homo sapiens, UniProt O00411); assay: Human mitochondrial RNA polymerase single nucleotide incorporation assay; format: biochemical; settings: 500 μM nucleoside triphosphate, 5 min at RT
T1 construct: Purified full length POLRMT (Enzymax, USA); purchased Enzymax
Protocol: Human Mitochondrial RNA Polymerase Assay.
Human mitochondrial RNA polymerase (POLRMT) single nucleotide Incorporation assay was adapted from Arnold et al. (Sensitivity of mitochondrial transcription and resistance of RNA polymerase II dependent nuclear transcription to antiviral ribonucleosides. PloS Pathogen 8(11):e1003030.). Briefly, elongation complexes were formed by incubating 500 nM POLRMT with 250 nM annealed DNA template/RNA primer duplex, in assay buffer (25 mM Tris-HCl, pH 8, 50 mM KCl, 10 mM MgCl2, 1 mM dithiothreitol, 0.2 U/μL RNasin) for 1.5 min at room temperature (RT), followed by rapid mixing with 500 μM nucleoside triphosphate substrate or inhibitor. Purified full length POLRMT (Enzymax, USA) was stored in 10 mM Tris-HCl (pH 8.0), 1 mM DTT, 100 mM NaCl and 20% glycerol. The volume of POLRMT added to any reaction was always less than or equal to one-tenth the total volume. Primer-template consisted of a 5′-FAM labeled […] RNA oligonucleotide primer SEQ. ID. NO. 2 (5′-UUUUGCCGCGCC-3′) annealed to the appropriate 18-mer DNA template to allow single addition of A, C, G or U ribonucleotide (Arnold et al. 2012). […] Electrophoresis was performed in 1×TBE buffer at 600 V. Gels were visualized with a Typhoon Imager under fluorescence detection mode and quantified with the Image Quant TL Software (GE Healthcare, Piscataway, N.J.). […]

T1 sequence (O00411 42-1230): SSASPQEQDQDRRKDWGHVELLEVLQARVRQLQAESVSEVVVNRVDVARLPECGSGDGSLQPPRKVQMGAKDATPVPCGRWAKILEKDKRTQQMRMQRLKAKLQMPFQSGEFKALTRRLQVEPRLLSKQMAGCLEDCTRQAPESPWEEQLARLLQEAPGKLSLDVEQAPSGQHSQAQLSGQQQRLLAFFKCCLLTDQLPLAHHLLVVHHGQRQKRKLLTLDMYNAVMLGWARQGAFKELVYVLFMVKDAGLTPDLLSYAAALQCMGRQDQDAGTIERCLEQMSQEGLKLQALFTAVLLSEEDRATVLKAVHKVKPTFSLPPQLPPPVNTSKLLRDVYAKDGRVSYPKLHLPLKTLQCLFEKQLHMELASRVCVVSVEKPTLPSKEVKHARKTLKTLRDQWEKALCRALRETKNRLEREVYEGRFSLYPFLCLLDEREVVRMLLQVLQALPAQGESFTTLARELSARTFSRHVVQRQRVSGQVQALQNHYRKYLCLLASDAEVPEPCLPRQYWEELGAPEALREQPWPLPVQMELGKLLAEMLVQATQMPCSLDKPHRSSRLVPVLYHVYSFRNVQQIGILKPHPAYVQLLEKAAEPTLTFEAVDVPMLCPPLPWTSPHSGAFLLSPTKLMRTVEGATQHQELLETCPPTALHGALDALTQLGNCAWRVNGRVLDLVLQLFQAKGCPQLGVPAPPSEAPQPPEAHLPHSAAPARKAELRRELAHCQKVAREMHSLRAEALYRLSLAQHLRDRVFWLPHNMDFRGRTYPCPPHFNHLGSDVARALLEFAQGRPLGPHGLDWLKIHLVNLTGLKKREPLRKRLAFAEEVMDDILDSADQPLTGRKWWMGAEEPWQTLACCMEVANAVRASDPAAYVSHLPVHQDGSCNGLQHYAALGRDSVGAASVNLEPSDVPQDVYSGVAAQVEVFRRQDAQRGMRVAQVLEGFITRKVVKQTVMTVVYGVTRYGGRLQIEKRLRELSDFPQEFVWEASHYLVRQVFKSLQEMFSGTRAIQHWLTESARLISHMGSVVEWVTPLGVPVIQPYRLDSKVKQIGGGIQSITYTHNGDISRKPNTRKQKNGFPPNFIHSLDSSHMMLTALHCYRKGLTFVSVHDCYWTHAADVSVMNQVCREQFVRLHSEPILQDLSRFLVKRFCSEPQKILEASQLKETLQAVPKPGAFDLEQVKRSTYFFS

## [N-]=[N+]=N[C@]1(CO)O[C@@H](n2ccc(N)nc2=O)[C@H](O)[C@@H]1O [4′-Azido cytidine, 4′-azido-cytidine, reference compound]
[1]
  PC-3 Cox/SDH ratio <0.5: 25 µM
[2]
  HepG2 Cox/SDH ratio <0.5: 200 µM

## CC#C[C@]1(O)[C@H](n2ccc3c(N)ncnc32)O[C@](F)(COP(=O)(OCOC(=O)OC(C)C)OCOC(=O)OC(C)C)[C@H]1O [Example 2, ((2S,3S,4R,5R)-5-(4-amino-7H-pyrrolo[2,3-d]pyrimidin-7-yl)-2-fluoro-3,4-dihydroxy-4-(prop-1-yn-1-yl)tetrahydrofuran-2-yl)methyl bis(((1-isopropoxycarbonyl)oxy)methyl) phosphate]
[3]
  Cytotoxicity Assay Results: K562: >100 µM
[1]
  PC-3 Cox/SDH ratio <0.5: >200 µM
[4]
  Cytotoxicity Assay Results: HepG2: >100 µM
[5]
  Cytotoxicity Assay Results: PC3: >200 µM
[6]
  Cytotoxicity Assay Results: MT4: >100 µM
[7]
  EC50: 700 nM
[8]
  EC50: 700 nM
[9]
  EC50: 400 nM
[10]
  EC50: 800 nM
[11]
  EC50: 600 nM
[12]
  EC50: 600 nM
[13]
  EC50: 2050 nM
[14]
  EC50: 700 nM
[2]
  HepG2 Cox/SDH ratio <0.5: >200 µM
[15]
  EC50: 1000 nM

## CC#C[C@]1(O)[C@H](n2ccc3c(N)ncnc32)O[C@](F)(COP(=O)(O)OP(=O)(O)OP(=O)(O)O)[C@H]1O [Example 3]
[16]
  Human Mitochondrial RNA polymerase incorporation: 1.9% (Examples)

## C[C@@]1(F)[C@H](O)[C@@H](COP(=O)(O)OP(=O)(O)OP(=O)(O)O)O[C@H]1n1ccc(=O)[nH]c1=O [Sofosbuvir TP, reference compound]
[16]
  Human Mitochondrial RNA polymerase incorporation: 1.9% (Sofosbuvir TP)

Source: patent publication US9988416B2, “Alkynyl nucleoside analogs as inhibitors of human rhinovirus” (NOVARTIS AG, priority 2016, dated 2018)
